Experimental data as given in patent US5464848A, “1,2,4-oxadiazolyl-phenoxyalkylisoxazoles and their use as antiviral agents” (Sterling Winthrop Inc., priority 1993, dated 1995).
In brackets after ≈: the same amount, converted by molar mass.

Tested on: human rhinovirus (HRV) serotypes, panel T
Assay: MIC50/MIC80 over panel T of fifteen human rhinovirus serotypes (HeLa cell CPE)
Type: cell-based
Conditions: for MIC50: Human rhinovirus sp., 72 h, minimum concentration required to inhibit 50% of the tested serotypes; for MIC80: minimum concentration required to inhibit 80% of the tested serotypes
Description: They are useful in inhibiting virus replication in vitro and are primarily active against picornaviruses, including enteroviruses, echovirus and coxsackie virus, especially rhinoviruses. […] The test procedure used was as follows: The MIC values were determined by an automated tissue culture infectious dose 50% (TCID-50) assay. HeLa cells in monoloyers in 96-well cluster plates were infected with a dilution of virus which had been shown empirically to produce 80% to 100% cytopathic effect (CPE) in 3 days in the absence of drug. The compound to be tested was serially diluted through 10, 2-fold cycles and added to the infected cells. After a 3 day incubation at 33° C. and 2.5% carbon dioxide, the cells were fixed with a 5% solution of glutaraldehyde followed by staining with a 0.25% solution of crystal violet in water. The plates were then rinsed, dried, and the amount of stain remaining in the well (a measure of intact cells) was quantitated with an optical density reader. The MIC was determined to be the concentration of compound which protected 50% of the cells from virus-induced CPE relative to an untreated virus control.
In the above test procedures, representative compounds of formula I were tested against some the serotypes from either a panel of fifteen human rhinovirus (HRV) serotypes, (noted in the table as panel T) namely, HRV-2, -14, -1A, -1B, -6, -21, -22, -15, -25, -30, -50, -67, -89, -86 and -41 or against some of the serotypes from a panel of 10 human rhinovirus serotypes namely HRV-3, -4, -5, -9, -16, -18, -38, -66, -75 and -61, (noted in the table as panel B) and the MIC value, expressed in micrograms per milliliter ([…]), for each rhinovirus serotype was determined for each virus, example 1e is given as an example of the data. Then MIC50 and MIC80 values, which are the minimum concentrations of the compound required to inhibit 50% and 80%, respectively, of the tested serotypes were determined.
The following Table gives the test results for representative compounds of the invention. The panel of viruses used in the test appears before the MIC80 and MIC50 figure and the number of serotypes which the compound is tested against (N) is indicated after the MIC80 and MIC50 figure.

Structure (SMILES)	MIC50 [µg/mL]	MIC80 [µg/mL]
CC(=O)OCc1nc(-c2cc(C)c(OCCCc3cc(C)no3)c(C)c2)no1 [Example 9, 5-{3-[2,6-Dimethyl-4-(5-methylcarbonyloxy-methyl-1,2,4-oxadiazol-3-yl)phenoxy]propyl}-3-methylisoxazole]	0.279 (≈ 0.724 µM)	0.141 (≈ 0.366 µM)
Cc1ccc(S(=O)(=O)OCc2nc(-c3cc(C)c(OCCCc4cc(C)no4)c(C)c3)no2)cc1 [Example 42, 5-{3-[2,6-Dimethyl-4-(5-(4-methylphenylsulfonyloxymethyl) -1,2,4-oxadiazol-3-yl)phenoxy]propyl}-3-methylisoxazole]	99 (≈ 199 µM)	99 (≈ 199 µM)
CCc1cc(CCCOc2c(C)cc(-c3noc(C4CC4)n3)cc2C)on1 [Example 25, 5-{3-[4-(5-Cyclopropyl-1,2,4-oxadiazol-3-yl) -2,6-dimethylphenoxy]propyl}-3-ethylisoxazole]	0.312 (≈ 0.849 µM)	0.085 (≈ 0.231 µM)
Cc1cc(-c2noc(C(F)(F)F)n2)cc(C)c1OCCCc1cc(C(=O)O)no1 [Example 56e]	99 (≈ 241 µM)	5.304 (≈ 12.9 µM)
COc1nc(-c2cc(C)c(OCCCc3cc(C)no3)c(C)c2)no1 [Example 16, 5-{3-[2,6-Dimethyl-4-(5-methoxy-1,2,4-oxadiazol-3-yl)phen-oxy]propyl}-3-methylisoxazole]	0.135 (≈ 0.393 µM)	0.036 (≈ 0.105 µM)
CN=c1[nH]c(-c2cc(C)c(OCCCc3cc(C)no3)c(C)c2)no1 [Example 18, 5-{3-[2,6-Dimethyl-4-(5-methylimino-4,5-dihydro-1,2,4-oxadiazol-3-yl)phenoxy]propyl}-3-methylisoxazole]	0.325 (≈ 0.949 µM)	0.128 (≈ 0.374 µM)
CCOCc1cc(CCCOc2c(C)cc(-c3noc(C(F)(F)F)n3)cc2C)on1 [Example 22, 5-{3-[2,6-Dimethyl-4-(5-trifluoromethyl-1,2,4-oxadiazol-3-yl)phenoxy]propyl}-3-(ethoxymethyl)-isoxazole]	0.729 (≈ 1.71 µM)	0.087 (≈ 0.205 µM)
CCOc1nc(-c2cc(C)c(OCCCc3cc(C)no3)c(C)c2)no1 [Example 17, 5-{3-[2,6-Dimethyl-4-(5-ethoxy-1,2,4-oxadiazol-3-yl)phenoxy]propyl}-3-methylisoxazole]	0.116 (≈ 0.325 µM)	0.055 (≈ 0.154 µM)
Cc1cc(CCCOc2c(C)cc(-c3noc(C(Cl)Cl)n3)cc2C)on1 [Example 13, 5-{3-[4-(5-Dichloromethyl-1,2,4-oxadiazol-3-yl)-2,6-dimethyl-phenoxy]propyl}-3-methylisoxazole]	0.266 (≈ 0.671 µM)	0.145 (≈ 0.366 µM)
Cc1cc(CCCOc2c(C)cc(-c3noc(C(N)=O)n3)cc2C)on1 [Example 38, 5-{3-[4-(5-Aminocarbonyl-1,2,4-oxadiazol-3-yl)-2,6-dimethyl-phenoxy]propyl}-3-methylisoxazole]	99 (≈ 278 µM)	0.839 (≈ 2.35 µM)
Cc1cc(-c2noc(C(F)(F)F)n2)cc(C)c1OCCCc1cc(CO)no1 [Example 34d, 5-{3-[2,6-Dimethyl-4-(5-trifluoromethyl-1,2,4-oxadiazol-3-yl)phenoxy]propyl}-3-(hydroxymethyl) isoxazole]	0.07 (≈ 0.176 µM)	0.042 (≈ 0.106 µM)
Cc1cc(CCCCCOc2c(Cl)cc(-c3noc(C(F)(F)F)n3)cc2Cl)on1 [Example 31c, 5-{5-[2,6-Dichloro-4-(5-trifluoromethyl-1,2,4-oxadiazol-3-yl)-phenoxy]pentyl}-3-methylisoxazole]	99 (≈ 220 µM)	0.533 (≈ 1.18 µM)
COCc1cc(CCCOc2c(C)cc(-c3noc(C4CC4)n3)cc2C)on1 [Example 26]	0.183 (≈ 0.477 µM)	0.038 (≈ 0.0991 µM)
CC(=O)OC(C)c1nc(-c2cc(C)c(OCCCc3cc(C)no3)c(C)c2)no1 (centres unmarked) [Example 11, 5-{3-[2,6-Dimethyl-4-(5-(1-methylcarbonyloxy-ethyl)-1,2,4-oxadiazol-3-yl)phenoxy]propyl}-3-methylisoxazole]	1.98 (≈ 4.97 µM)	0.2485 (≈ 0.622 µM)
Cc1cc(-c2noc(C3CC3)n2)cc(C)c1OCCCc1cc(CO)no1 [Example 39c, 5-{3-[4-(5-Cyclopropyl-1,2,4-oxadiazol-3-yl)-2,6-dimethylphenoxy]propyl}-3-(hydroxymethyl) isoxazole]	0.187 (≈ 0.506 µM)	0.035 (≈ 0.0947 µM)
Cc1cc(CCCOc2c(C)cc(-c3noc(C(Cl)(Cl)Cl)n3)cc2C)on1 [Example 12, 5-{3-[2,6-Dimethyl-4-(5-trichloromethyl-1,2,4-oxadiazol-3-yl)-phenoxy]propyl}-3-methylisoxazole]	2.94 (≈ 6.83 µM)	0.662 (≈ 1.54 µM)

Structure (SMILES)	MIC50 [µg/mL]	MIC80 [µg/mL]
Cc1cc(-c2noc(C(F)(F)F)n2)cc(C)c1OCCCc1cc(CCO)no1 [Example 33, 5-{3-[2,6-Dimethyl-4-(5-trifluoromethyl-1,2,4-oxadiazol-3-yl)-phenoxy]propyl}-3-(2-hydroxyethyl)isoxazole]	0.102 (≈ 0.248 µM)	0.045 (≈ 0.109 µM)
Cc1cc(CCCOc2c(C)cc(-c3nc(C(F)(F)F)no3)cc2C)on1 [Example 46c]	0.197 (≈ 0.517 µM)	0.1 (≈ 0.262 µM)
Cc1cc(CCCOc2c(C)cc(-c3noc(N(C)C)n3)cc2C)on1 [Example 19, 5-{3-[2,6-Dimethyl-4-(5-dimethylamino-1,2,4-oxadiazol-3-yl)-phenoxy]propyl}-3-methylisoxazole]	0.285 (≈ 0.8 µM)	0.085 (≈ 0.238 µM)
Cc1cc(CCCOc2c(C)cc(-c3noc(CI)n3)cc2C)on1 [Example 41, 5-{3-[2,6-Dimethyl-4-(5-(iodomethyl)-1,2,4-oxadiazol-3-yl) -phenoxy]propyl}-3-methylisoxazole]	99 (≈ 218 µM)	99 (≈ 218 µM)
COCc1nc(-c2cc(C)c(OCCCc3cc(C)no3)c(C)c2)no1 [Example 5, 5-{3-[2,6-Dimethyl-4-(5-methoxymethyl-1,2,4-oxadiazol-3-yl)phenoxy]propyl}-3-methylisoxazole]	0.153 (≈ 0.428 µM)	0.037 (≈ 0.104 µM)
COCCc1cc(CCCOc2c(C)cc(-c3noc(C(F)(F)F)n3)cc2C)on1 [Example 29d, 5-{3-[2,6-Dimethyl-4-(5-trifluoromethyl-1,2,4-oxadiazol-3-yl)phenoxy]propyl}-3-(methoxyethyl)isoxazole]	0.172 (≈ 0.404 µM)	0.715 (≈ 1.68 µM)
Cc1cc(CCCOc2ccc(-c3noc(C4CCC4)n3)cc2)on1 [Example 54e, 5-{3-[4-(5-cyclobutyl-1,2,4-oxadiazol-3-yl)phenoxy]propyl}-3-methylisoxazole]	99 (≈ 292 µM)	0.1045 (≈ 0.308 µM)
CCOc1cc(CCCOc2c(C)cc(-c3noc(C4CC4)n3)cc2C)on1 [Example 37, 5-{3-[4-(5-Cyclopropyl-1,2,4-oxadiazol-3-yl)-2,6-dimethyl-phenoxy]propyl}-3-ethoxyisoxazole]	0.352 (≈ 0.918 µM)	0.91 (≈ 2.37 µM)
Cc1cc(CCCOc2c(C)cc(-c3noc(CCl)n3)cc2C)on1 [Example 10, 5-{3-[4-(5-Chloromethyl-1,2,4-oxadiazol-3-yl) -2,6-dimethylphenoxy]propyl}-3-methylisoxazole]	0.279 (≈ 0.771 µM)	0.141 (≈ 0.39 µM)
Cc1cc(CCCOc2c(C)cc(-c3noc(C(F)F)n3)cc2C)on1 [Example 14, 5-{3-[4-(5-Difluoromethyl-1,2,4-oxadiazol-3-yl)-2,6-dimethyl-phenoxy]propyl}-3-methylisoxazole]	0.054 (≈ 0.149 µM)	0.022 (≈ 0.0605 µM)
Cc1cc(CCCOc2c(C)cc(-c3nc(C4CC4)no3)cc2C)on1 [Example 45l, 5-{3-[2,6-Dimethyl-4,(5-cyclopropyl-1,2,4-oxadiazol-3-yl)phenoxy]propyl}-3-methylisoxazole]	0.558 (≈ 1.58 µM)	0.153 (≈ 0.433 µM)
Cc1cc(CCCOc2c(C)cc(-c3noc(=O)[nH]3)cc2C)on1 [Example 8, 5-{3-[2,6-Dimethyl-4-(5-oxo-4,5-dihydro-1,2,4-oxadiazol-3-yl)phenoxy]propyl}-3-methylisoxazole]	99 (≈ 301 µM)	99 (≈ 301 µM)
Cc1cc(CCCOc2c(C)cc(-c3noc(CF)n3)cc2C)on1 [Example 6, 5-{3-[2,6-Dimethyl-4-(5-fluoromethyl-1,2,4-oxadiazol-3-yl)phenoxy]propyl}-3-methylisoxazole]	0.073 (≈ 0.211 µM)	0.046 (≈ 0.133 µM)
Cc1cc(CCCCCOc2c(C)cc(-c3noc(C(F)(F)F)n3)cc2C)on1 [Example 30c, 5-{5-[2,6-Dimethyl-4-(5-trifluoromethyl-1,2,4-oxadiazol-3-yl)-phenoxy]pentyl}-3-methylisoxazole]	0.694 (≈ 1.7 µM)	0.225 (≈ 0.55 µM)
Cc1cc(CCCOc2c(Cl)cc(-c3noc(C(F)(F)F)n3)cc2C#N)on1 [Example 61e, 5-{3-[4-(5-Trifluoromethyl-1,2,4-oxadiazol-3-yl)2-cyano-6-chlorophenoxy]-propyl}-3-methylisoxazole]	0.706 (≈ 1.71 µM)	0.3355 (≈ 0.813 µM)
